# Test results reported in PubChem BioAssay (NCI).
#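 Assay format: 96-well plates, 48-hour exposure. GI50 marks 50% less growth. The concentration for full growth arrest is given as TGI.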
# Experiments:
# Assay in all cases: DTP human tumour cell line panel, 48 h
# [1] = tested on: DU-145 prostate
# [2] = tested on: MOLT-4 leukemia
# [3] = tested on: HCC-2998 colon
# [4] = tested on: U251 CNS
# [5] = tested on: MDA-MB-231 breast
# [6] = tested on: T-47D breast
# [7] = tested on: HCT-15 colon
# [8] = tested on: SK-MEL-2 melanoma
# [9] = tested on: SK-MEL-5 melanoma
# [10] = tested on: NCI-H23 lung
Structure (SMILES),TGI [1] [µM],TGI [2] [µM],TGI [3] [µM],TGI [4] [µM],TGI [5] [µM],TGI [6] [µM],TGI [7] [µM],TGI [8] [µM],TGI [9] [µM],TGI [10] [µM],GI50 [1] [nM],GI50 [2] [nM],GI50 [3] [µM],GI50 [4] [nM],GI50 [5] [nM],GI50 [6] [µM],GI50 [7] [nM],GI50 [8] [nM],GI50 [9] [nM],GI50 [10] [µM]
CC(/C=N/N(C)C1=NCCCCN1)=N/N(C)C1=NCCCCN1,> 100,> 100,> 100,> 100,> 100,> 100,> 100,> 100,> 100,> 100,–,–,–,–,–,–,–,–,–,–
CC1(CCc2ccccc2)CC1(Br)Br (stereo not given),> 100,56,76.2,> 100,> 100,> 100,> 100,36.1,30.1,> 100,–,–,–,–,–,–,–,–,–,–
N#Cc1ccc(/C=N/NC(=O)CSCC(=O)N/N=C/c2ccc(C#N)cc2)cc1,> 100,> 100,> 100,> 100,81.7,> 100,> 100,> 100,> 100,> 100,–,–,–,–,–,–,–,–,–,–
c1ccc2c(c1)CCN(C1=NCCO1)C2,> 10,> 10,> 10,> 10,> 10,> 10,> 10,> 10,> 10,> 10,–,–,–,–,–,–,–,–,–,–
O=C1OC(C2Cc3ccccc3C2=O)c2ccccc21 (stereo not given),> 100,> 100,> 100,> 100,> 100,> 100,> 100,> 100,> 100,> 100,–,–,–,–,–,–,–,–,–,–
O=C(Nc1ccc(-n2cc(-c3ccncc3)c(-c3ccc(O)c(Cl)c3)n2)cc1)c1cc(Cl)cc(Cl)c1,> 32.5,> 32.5,> 32.5,> 32.5,1.45,> 32.5,> 32.5,2.94,6.85,> 32.5,2170,1290,11.8,1320,647,18.6,908,899,877,12.1
c1nncn1C12C3C4C5C3C1C5C42 (stereo not given),> 100,> 100,> 100,> 100,> 100,> 100,> 100,> 100,> 100,> 100,–,–,–,–,–,–,–,–,–,–
O=C1c2n[nH]nc2C(=O)c2n[nH]nc21,> 100,> 100,> 100,> 100,> 100,> 100,> 100,> 100,> 100,> 100,–,–,–,–,–,–,–,–,–,–
CCSCC(=O)N1CCc2c([nH]c3ccccc23)C1=O,> 100,> 100,> 100,> 100,> 100,> 100,> 100,> 100,> 100,> 100,–,–,–,–,–,–,–,–,–,–
COC(=O)c1ccc(CCC2=CC(=O)C(Br)=CC2=O)cc1,32,7.32,29.1,32.5,38.7,70.9,27.6,31.9,24.6,28.4,–,–,–,–,–,–,–,–,–,–
CCOP(=O)(CC1CC(O)(CNc2cc(Cl)nc(N)n2)C1)OCC (stereo not given),> 100,> 100,> 100,> 100,> 100,> 100,> 100,> 100,> 100,> 100,–,–,–,–,–,–,–,–,–,–
O=C1c2cc([N+](=O)[O-])cnc2S(=O)(=O)N1c1ccc(Br)cc1,> 100,> 100,> 100,> 100,> 100,> 100,> 100,> 100,> 100,> 100,–,–,–,–,–,–,–,–,–,–
OCCN1CN(c2nc(N3CN(CCO)C3)nc(N3CN(CCO)C3)n2)C1,54.7,> 100,41.7,53,36.6,64.7,46.7,41.9,33.4,50,–,–,–,–,–,–,–,–,–,–
O=S(=O)(O)c1ccc2c(N=Nc3ccccc3)c(O)c(S(=O)(=O)O)cc2c1,> 100,> 100,> 100,> 100,> 100,> 100,> 100,> 100,> 100,> 100,–,–,–,–,–,–,–,–,–,–
